# Laboratory results taken from US20250026725A1, “HYDRATE CRYSTAL OF 5-CHLORO-4-(3-CHLORO-4- METHYLPHENYL)-1H-IMIDAZOLE-2-CARBONITRILE” (ISHIHARA SANGYO KAISHA, LTD., priority 2021, published 2025).
# Read-outs that look alike come from different tables or passages of the source.
# Key:
# [1] = test system: Malassezia pachydermatis (IFM56528); test: Antifungal activity test, minimum fungicidal concentration (MFC100); type: cell-based; details: 1 minute contact, culture 32° C. for 72 hours, read-out: Minimal fungicidal concentration (MFC100)
# Description: Malassezia pachydermatis that had been cultured on a Sabouraud medium (1% peptone, 4% […], 1.5% agar) for 5 to 7 days was suspended in physiological saline to prepare so as to have an absorbance of 0.025 at 600 nm. The compound under test dissolved in DMSO was added thereto so as to have final concentrations of 200, 100, 50, and 25 ppm. 1 minute later, 10 μL of suspension and 10 mL of physiological saline were added to a syringe and stirred, and then the mixture was filtered and washed by connecting to a 37 mm quality monitor (manufactured by Pall Corporation) and washed. As such, membrane filters were permeated with the Sabouraud medium, culturing was performed at 32° C. for 72 hours, the presence or absence of the development of colonies was examined to determine a minimum fungicidal concentration (MFC100). A minimum fungicidal concentration (MFC100) for Malassezia pachydermatis (IFM56528) was determined in the same method as in Test Example 9 except that the hydrate crystal (Production Example 2) was used as the compound under test.
# [2] = test system: Trichophyton rubrum (ATCCMYA4607); test: Antifungal activity test, minimum inhibitory concentration (MIC100); type: cell-based; details: Sabouraud medium, 32° C. for 72 hours
# Description: Trichophyton rubrum was cultured on a Sabouraud medium at 32° C. for 168 hours to form spores. Mycelia were peeled from a medium surface and collected into a tube, physiological saline solution (OTSUKA NORMAL SALINE; containing the equivalent of 9 g of sodium chloride in 1000 mL) was added thereto, and the entire mixture was mixed and dispersed with a disposable loop (Type 1 (1 μL)) to collect a spore suspension containing mycelia. The spore suspension containing mycelia was filtered through a cell strainer (+40 μm). Spores were collected from a filtrate by centrifugation (3500 rpm, 5 minutes), and washed twice with physiological saline to prepare a spore suspension (1×10^6 cells/mL). 10 μL of the spore suspension was inoculated into the Sabouraud medium to which the test compound dissolved in DMSO was added so as to have a predetermined concentration. Trichophyton rubrum was cultured at 32° C. for 72 hours, and then the presence or absence of the development of colonies was examined to determine a minimum inhibitory concentration (MIC100).
# A minimum inhibitory concentration (MIC100) for Trichophyton rubrum (ATCCMYA4607) was determined in the same method as in Test Example 12 except that the hydrate crystal (Production Example 2) was used as the compound under test.
# [3] = test system: Trichophyton rubrum (ATCCMYA4607); test: Antifungal activity test, minimum fungicidal concentration (MFC100) on spores by treatment time; type: cell-based; details: read-out: Minimal fungicidal concentration (MFC100)
# Description: Trichophyton rubrum was cultured on a Sabouraud medium at 32° C. for 168 hours to form spores. Mycelia were peeled from a medium surface and collected into a tube, physiological saline solution (OTSUKA NORMAL SALINE; containing the equivalent of 9 g of sodium chloride in 1000 mL) was added thereto, and the entire mixture was mixed and dispersed with a disposable loop (Type 1 (1 μL)) to collect a spore suspension containing mycelia. The spore suspension containing mycelia was filtered through a cell strainer (+40 μm). Spores were collected from a filtrate by centrifugation (3500 rpm, 5 minutes), and washed twice with physiological saline to prepare a spore suspension (1×10^7 cells/mL). 10 μL of the spore suspension was inoculated into 90 μL of physiological saline solution to which the test compound dissolved in DMSO was added so as to have a predetermined concentration. Every time a predetermined time lapsed, 10 μL of a test solution containing spores was taken out. Spores were collected from the test solution thus taken out by centrifugation (3500 rpm, 5 minutes), and washed twice with physiological saline to prepare 10 μL of spore suspension. 10 μL of spore suspension was spotted on the Sabouraud medium and cultured at 32° C. for 72 hours, and then the presence or absence of the development of colonies was examined to determine a minimum fungicidal concentration (MFC100).
# A minimum inhibitory concentration (MIC100) for Trichophyton rubrum (ATCCMYA4607) was determined in the same method as in Test Example 13 except that the hydrate crystal (Production Example 2) was used as the compound under test.
# Moisture absorption test = type: physicochemical
# Description: An anhydrous crystal sample was placed in a container (glass weighing bottle or paper bag) in such a manner that it was in direct contact with the damp. […] In addition, a sample for the hydrate crystal (Production Example 1) was also preserved at 60° C./80% RH, and the change in moisture content was observed through the change in weight or Karl Fischer moisture measurement.
# [4] = Test of triboelectrification properties; type: physicochemical; details: 25° C. and 50% RH
# Description: First, the sample was loaded into a levelled stainless steel petri dish having φ50 mm×a height of 15 mm, and then it was statically eliminated with a static eliminator (STABLO AP, manufactured by SHIMADZU CORPORATION). The surface potential of the sample was measured with a surface electrometer (SV-77A, manufactured by NIPPON STATIC CO., LTD.) that had previously been zero-point adjusted, to confirm that it was statically eliminated (within −1 to +1 kV). Next, the sample surface of the petri dish loaded with the sample was scraped back and forth 20 times with a stainless steel metal plate for 10 seconds to charge the sample surface. After that, the petri dish loaded with the charged sample was placed on a metal plate (30 cm×30 cm) connected with a ground wire. The surface potential of the sample was measured over time for 20 minutes with the above surface electrometer. The triboelectrification properties were evaluated from the initial surface potential. In addition, the retention rate was calculated from the surface potential after 20 minutes and the initial surface potential to evaluate charge attenuation properties. Note that the test was conducted in an electrostatic measurement chamber (Tabai ESPEC CORP.) set to 25° C. and 50% RH, and the surface potential measurement was conducted at a distance of 1 cm from the sample surface.
# [5] = 40° C./75% RH, weighing bottle, 14 days
# [6] = 40° C./75% RH, weighing bottle, 28 days
# [7] = 40° C./75% RH, weighing bottle, 28 days, listed as Anhydrate crystal
compound,measurement,setting,value
"Cc1ccc(-c2nc(C#N)[nH]c2Cl)cc1Cl [Anhydrous crystal, 5-chloro-4-(3-chloro-4-methylphenyl)-1H-imidazole-2-carbonitrile]",MFC,[1],50 µg/mL
same,MIC,[2],5 µg/mL
same,MFC,[3]; treatment time 1 hour,50 µg/mL
same,MFC,[3]; treatment time 48 hours,10 µg/mL
same,MFC,[3]; treatment time 72 hours,5 µg/mL
same,Moisture content,"Moisture absorption test; 25° C./80% RH, paper bag, 0 days",0.1%
same,Weight change,"Moisture absorption test; 25° C./80% RH, paper bag, 14 days",0.6%
same,Weight change,"Moisture absorption test; 25° C./80% RH, paper bag, 28 days",2.2%
same,Weight change,"Moisture absorption test; 25° C./80% RH, paper bag, 35 days",3.3%
same,Weight change,"Moisture absorption test; 25° C./80% RH, paper bag, 43 days",4.2%
same,Weight change,"Moisture absorption test; 25° C./80% RH, paper bag, 49 days",4.7%
same,Weight change,"Moisture absorption test; 25° C./80% RH, paper bag, 49 days, listed as Anhydrate crystal",4.7%
same,Moisture content,"Moisture absorption test; 40° C./75% RH, weighing bottle, 0 days",0.1%
same,Weight change,"Moisture absorption test; 40° C./75% RH, weighing bottle, 7 days",3.5%
same,Moisture content,Moisture absorption test; [5],5.7%
same,Weight change,Moisture absorption test; [5],5.0%
same,Weight change,"Moisture absorption test; 40° C./75% RH, weighing bottle, 21 days",6.4%
same,Moisture content,Moisture absorption test; [6],6.1%
same,Weight change,Moisture absorption test; [6],6.7%
same,Moisture content,Moisture absorption test; [7],6.1%
same,Weight change,Moisture absorption test; [7],6.7%
same,Electrification voltage,"[4]; 0 minutes after charging, listed as Anhydrate crystal",−5.42 kv
same,Electrification voltage,"[4]; 20 minutes after charging, listed as Anhydrate crystal",−5.39 kv
same,Decrease of potential retention rate,[4]; at 20 minutes later,almost no change
same,Retention rate,"[4]; surface potential after 20 minutes vs initial, listed as Anhydrate crystal",99.4%
